Laboratory results taken from ChEMBL document CHEMBL1909046, “DrugMatrix in vitro pharmacology data”.
pIC50, pKi: −log10 of the molar value.

Legend:
[1] = molecular target: Delta-type opioid receptor (Homo sapiens, UniProt P41143); format: cell membranes, HEK293, Membrane; details: hek293; note: in other assays of this panel Not Active means under 50% inhibition at 10 µM
[2] = DRUGMATRIX: Serotonin (5-Hydroxytryptamine) 5-HT3 radioligand binding (ligand: [3H] GR-65630); format: cell membranes, Membrane; details: hek293; Not Active = under 50% inhibition at 10 µM
[3] = molecular target: T1, C-X-C chemokine receptor type 2 (Homo sapiens, UniProt P25025); format: cell membranes, Membrane; details: cho-k1; note: in other assays of this panel Not Active means under 50% inhibition at 10 µM
T1 sequence (P25025 whole entry): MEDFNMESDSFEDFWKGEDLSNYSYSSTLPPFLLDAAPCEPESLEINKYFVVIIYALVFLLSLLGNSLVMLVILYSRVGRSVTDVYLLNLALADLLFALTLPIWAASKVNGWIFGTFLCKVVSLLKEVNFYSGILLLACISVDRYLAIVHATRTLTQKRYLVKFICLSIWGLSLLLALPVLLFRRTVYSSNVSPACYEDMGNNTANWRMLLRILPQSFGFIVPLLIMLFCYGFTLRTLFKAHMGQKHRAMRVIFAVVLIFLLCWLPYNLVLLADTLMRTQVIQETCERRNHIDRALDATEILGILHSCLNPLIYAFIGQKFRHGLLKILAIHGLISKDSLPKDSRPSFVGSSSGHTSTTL

[4] = DRUGMATRIX: GABAA, Chloride Channel, TBOB radioligand binding (ligand: [3H] TBOB); format: cell membranes, Rattus norvegicus, Wistar, Cerebral cortex, Membrane; details: Not Active = under 50% inhibition at 10 µM
[5] = DRUGMATRIX: Atrial Natriuretic Factor (ANF) radioligand binding (ligand: [125I] ANF (rat)); format: cell membranes, Cavia porcellus, Dunkin-Hartley, Adrenal gland, Membrane; details: Not Active = under 50% inhibition at 10 µM
Melanocortin receptor 3 = Melanocortin receptor 3 (Homo sapiens, UniProt P41968); format: cell membranes, Membrane; details: hek293; note: in other assays of this panel Not Active means under 50% inhibition at 10 µM
[6] = molecular target: cGMP-specific 3',5'-cyclic phosphodiesterase (Homo sapiens, UniProt O76074); assay: DRUGMATRIX: Phosphodiesterase PDE5 enzyme inhibition (substrate: [3H]cGMP + cGMP); format: tissue-based; details: platelet; Not Active = under 50% inhibition at 10 µM
Progesterone receptor = molecular target: T2, Progesterone receptor (Bos taurus, UniProt Q690N0); assay: DRUGMATRIX: Progesterone radioligand binding (ligand: [3H] R-5020); format: tissue-based, Uterus; details: Not Active = under 50% inhibition at 10 µM
T2 sequence (Q690N0 whole entry): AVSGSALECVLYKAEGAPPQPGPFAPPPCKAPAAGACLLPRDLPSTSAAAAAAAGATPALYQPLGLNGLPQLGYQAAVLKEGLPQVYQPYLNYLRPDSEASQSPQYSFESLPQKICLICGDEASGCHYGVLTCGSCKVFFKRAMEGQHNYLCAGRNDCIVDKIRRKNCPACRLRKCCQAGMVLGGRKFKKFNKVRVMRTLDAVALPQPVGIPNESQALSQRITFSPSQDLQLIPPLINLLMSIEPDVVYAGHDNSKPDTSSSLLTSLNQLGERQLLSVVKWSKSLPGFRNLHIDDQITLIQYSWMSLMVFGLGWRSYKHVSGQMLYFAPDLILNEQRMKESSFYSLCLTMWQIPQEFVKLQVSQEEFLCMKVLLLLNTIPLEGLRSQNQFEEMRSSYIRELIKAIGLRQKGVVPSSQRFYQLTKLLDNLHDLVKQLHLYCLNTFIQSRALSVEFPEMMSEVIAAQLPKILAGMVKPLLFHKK

Melanocortin receptor 3, sequence (P41968 whole entry): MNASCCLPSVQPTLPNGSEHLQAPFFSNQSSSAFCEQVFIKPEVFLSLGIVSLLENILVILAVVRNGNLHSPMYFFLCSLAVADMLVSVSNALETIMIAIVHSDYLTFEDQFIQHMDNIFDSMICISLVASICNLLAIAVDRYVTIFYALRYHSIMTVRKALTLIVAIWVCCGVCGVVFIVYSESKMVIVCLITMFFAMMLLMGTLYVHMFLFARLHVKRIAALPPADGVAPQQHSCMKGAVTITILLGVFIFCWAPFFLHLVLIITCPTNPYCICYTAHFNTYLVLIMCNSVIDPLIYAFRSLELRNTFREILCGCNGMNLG
Delta-type opioid receptor, sequence (P41143 whole entry): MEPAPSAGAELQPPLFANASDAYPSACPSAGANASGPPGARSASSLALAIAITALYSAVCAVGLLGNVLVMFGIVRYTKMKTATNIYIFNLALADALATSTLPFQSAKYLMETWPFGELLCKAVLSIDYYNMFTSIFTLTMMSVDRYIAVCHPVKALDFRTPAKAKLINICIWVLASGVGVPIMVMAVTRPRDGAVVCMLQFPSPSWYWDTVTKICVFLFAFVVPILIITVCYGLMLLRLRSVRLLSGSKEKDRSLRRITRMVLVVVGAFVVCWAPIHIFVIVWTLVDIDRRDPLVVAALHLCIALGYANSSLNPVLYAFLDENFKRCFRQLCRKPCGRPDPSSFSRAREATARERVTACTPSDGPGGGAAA

Compound | IC50 [1] | IC50 [2] | Ki [2] | IC50 [3] | IC50 [4] | Ki [4] | IC50 [5] | Ki [5] | IC50 (Melanocortin receptor 3) | IC50 [6] | IC50 (Progesterone receptor) | pIC50 (Progesterone receptor; read-out: IC50) | pKi (Progesterone receptor; read-out: Ki) | Ki [1] | Ki [3] | Ki (Melanocortin receptor 3) | Ki [6] | Ki (Progesterone receptor)
Cc1cc2cc3c(C)cc(=O)oc3c(C)c2o1 [TRIOXSALEN] | Not Active | Not Active | Not Active | Not Active | Not Active | Not Active | Not Active | Not Active | Not Active | Not Active | Not Active |  |  |  |  |  |  | 
Oc1ccc(OCc2ccccc2)cc1 [MONOBENZONE] | Not Active | Not Active | Not Active | Not Active | Not Active | Not Active | Not Active | Not Active | Not Active | Not Active | Not Active |  |  |  |  |  |  | 
O=C1CC2(CCCC2)CC(=O)N1CCCCN1CCN(c2ncccn2)CC1 [BUSPIRONE] | Not Active | Not Active | Not Active | Not Active | Not Active | Not Active | Not Active | Not Active | Not Active | Not Active | Not Active |  |  |  |  |  |  | 
COc1cccc2c1C(=O)c1c(O)c3c(c(O)c1C2=O)C[C@@](O)(C(=O)CO)C[C@@H]3O[C@H]1C[C@H](N)[C@@H](O)[C@H](C)O1 [EPIRUBICIN] | Not Active | Not Active | Not Active | Not Active | Not Active | Not Active | Not Active | Not Active | Not Active | Not Active | Not Active |  |  |  |  |  |  | 
C#C[C@]1(O)CC[C@H]2[C@@H]3CCc4cc(OC)ccc4[C@H]3CC[C@@]21C [MESTRANOL] | Not Active | Not Active | Not Active | Not Active | Not Active | Not Active | Not Active | Not Active | Not Active | Not Active |  | 4.07 | 4.96 |  |  |  |  | 
CN(C)c1ccc(C(=C2C=CC(=[N+](C)C)C=C2)c2ccc(N(C)C)cc2)cc1.[Cl-] [GENTIAN VIOLET] | Not Active | Not Active | Not Active | Not Active | Not Active | Not Active | Not Active | Not Active | Not Active | Not Active | Not Active |  |  |  |  |  |  | 
CC(=O)Nc1ccc(O)cc1 [ACETAMINOPHEN] | Not Active | Not Active | Not Active | Not Active | Not Active | Not Active | Not Active | Not Active | Not Active | Not Active | Not Active |  |  |  |  |  |  | 
CCCCN1CCCCC1C(=O)Nc1c(C)cccc1C.Cl (configuration not stated) [BUPIVACAINE HYDROCHLORIDE] | Not Active | Not Active | Not Active | Not Active | Not Active | Not Active | Not Active | Not Active | Not Active | Not Active | Not Active |  |  |  |  |  |  | 
Nc1ccn([C@@H]2CS[C@H](CO)O2)c(=O)n1 [LAMIVUDINE] | Not Active | Not Active | Not Active | Not Active | Not Active | Not Active | Not Active | Not Active | Not Active | Not Active | Not Active |  |  |  |  |  |  | 
COP(=O)(OC)OC=C(Cl)Cl [DICHLORVOS] | Not Active | Not Active | Not Active | Not Active | Not Active | Not Active | Not Active | Not Active | Not Active | Not Active | Not Active |  |  |  |  |  |  | 
CADMIUM DICHLORIDE | Not Active | Not Active | Not Active | Not Active | Not Active | Not Active | Not Active | Not Active | Not Active | Not Active | Not Active |  |  | Not Active | Not Active | Not Active | Not Active | Not Active
